Data on 5 molecules can be found in patent US20130039930A1, “BIOMARKER FOR SENSITIVITY TO THERAPY WITH A NOTCH INHIBITOR” (priority 2011, published 2013).

The subject of assay [1] is metastatic colorectal cancer. As to conditions: cited from earlier work.
Assay [2] deals with cleaved/activated Notch intracellular domain (NICD). The experiment in a line: NICD staining in Dll4-Fc- or DAPT-treated HDMECs (LECs and BECs). Format: cell-based, human. As to conditions: 10 μg/mL, 24 hours. Here is the method:
FIG. 1. Expression and function of Dll4-Fc. (A) Map of the AAV9-Dll4-Fc vector. (B) Structure of the Dll4-Fc as a dimeric fusion protein of the ECD of mouse Dll4 and Fc region of human immunoglobulin (hFc). (C) Dll4-Fc in the supernatants of AAV9-transfected 293T cells was analyzed by metabolic labeling, immunoprecipitation with Protein A Sepharose and autoradiography after collecting with protein Sepharose from the supernatant of the virus-infected cells. (D) Human dermal microvascular endothelial cells (HDMECs) on glass coverslips stained with Dll4-Fc (red) on ice. After fixation with paraformaldehyde (PFA) and permeabilzation, the cells were stained for Prox-1 (Green) and Hoechst (Blue). Human immunoglobulin G1 (hIgG) was used as a negative control (Red). Note Dll4-Fc in both the Prox-1-positive lymphatic vascular endothelial cells (LECs) and Prox-1-negative cells. (E) Effect of Dll4-Fc on Notch downstream gene expression. HDMECs were treated with 10 μg/mL Dll4-Fc or 10 μg/mL DAPT for 24 hours, and the expression of Hes-1, Hey-2 and NRARP were quantified by qPCR and normalized for the expression of β-actin. The experiment was repeated 4 times. (F) The cells used in (E) were stained for NICD lymphatic vascular endothelial cells (LECs). Prox-1-positive LECs are indicated by arrowheads. (G) Quantification of NICD fluorescence intensity. **:p<0.01. *: p<0.05. […]

For a further assay, the system named is SK-MeI-103 tumors. The experiment in a line: SK-MeI-103 tumor xenograft growth (control or VEGFR-3(D1-3)-Fc expressing). Format: in vivo, mouse. As to conditions: SK-MeI-103, AAV9-HSA treated mice. As to the method: (§1) FIG. 7. Neutralization of VEGF-C/D attenuates the inhibition by Dll4-Fc. (A) The mice were injected by AAV9-Dll4-Fc or AAV9-HSA, followed by subcutaneous implantation of 5×10^6 VEGFR-3(D1-3)-Fc expressing or control retrovirus-transfected SK-MeI-103 cells. *: p<0.01, **: p<0.05. (B) Endomucin staining of the tumors. (C) Quantification of endomucin positive area. […] Scale bar 100 μm.
Six- to eight-week old female nu/nu BALB/c mice were purchased from Harlan Laboratories (Venray, The Netherlands). The National Board for Animal Experiments at the Provincial State Office of Southern Finland approved all the experiments, which were performed in accordance with Finnish legislation regarding the humane care and use of laboratory animals. […] Once the tumors became visible during the first few days, the size of the tumor was measured by a digital caliper every second day. The tumor volume was calculated using the formula: (length)×(width)×(depth)×0.52.
The SK-Mel-103 cells were transfected by an empty retrovirus (control) or by a retrovirus encoding VEGFR-3(D1-3)-Fc and then subcutaneously inoculated into nu/nu mice treated with the AAV9-HSA or the AAV9-Dll4-Fc as described above. […] This difference was statistically significant when measured 10, 12 and 14 days after tumor inoculation. […]

For assay [3], the system named is SK-MeI-103 tumor blood vessels. The experiment in a line: Endomucin and VEGFR-3 staining of SK-MeI-103 tumors. Format: in vivo, mouse. As to conditions: SK-MeI-103 tumors expressing the VEGF-C/D trap.
Text: FIG. 6. Dll4-Fc suppresses growth of tumors expressing high levels of endogenous VEGF-C. (A) VEGF-C mRNA levels in the indicated tumor cell lines analyzed by qRT-PCR. (B) Effects of Dll4-Fc on the proliferation LNM35 and SK-MeI-103 cells in culture. […] (C) The effect of Dll4-Fc on the growth of LNM35 and SK-MeI-103 tumors. (D) Endomucin staining of LNM35 and SK-MeI-103 tumors. More sprouts were associated with Dll4-Fc treatment (arrows). (E) Quantification of endomucin positive areas in LNM35 and SK-MeI-103 tumors from (D). **:p<0.01. Scale bar 50 μm.
as §1
FIG. 9. Dll4-Fc induced hypersprouting and VEGFR-3 expression in tumors. (A) High magnification fluorescent imaging of blood vessels in the SW480 tumors. Endomucin staining. […] (C) Quantification of VEGFR-3 staining intensity in the blood vessels. **: p<0.01. […]
The immunofluorescent images were captured with a Zeiss digital Axiocam camera connected to a Zeiss AxioPlan 2 microscope. […] The image quantification was carried out using ImageJ software (NIH, Bethesda, Md.).

The test system of assay [4] is VEGF-C-induced BaF3/VEGFR-3 cell proliferation. The experiment in a line: BaF3/VEGFR-3 assay. Format: cell-based, mouse. As to conditions: supernatant from SK-VEGFR-3(D1-3)-Fc cells. As to the method: The BaF3/VEGFR-3 cells are derived from the interleukin-3 (IL-3) dependent mouse pro-B cell line, BaF3 (Bernardi et al., 1987). The cells express a chimeric receptor consisting of the ECD of human VEGFR-3 fused in-frame to the transmembrane and intracellular domain of mouse erythropoietin receptor (Achen et al., 2000). In IL-3 deficient cell media, the cells can be rescued by the addition of VEGF-C. The serial dilutions of supernatants (50 μl each), as well as positive and negative controls were applied in the wells of 96-well plates in quadruplicate. Subsequently, 20,000 BaF3/VEGFR-3 cells in 50 μl were added and the cells incubated at 37° C. for 48 hours. MTT substrate was added and the cells incubated at 37° C. for 2 hours. Lysis buffer (10% SDS, 10 mM HCl) was added and the plates incubated at 37° C. overnight for colour development. Quantification was done by absorbance at 540 nm.

A further assay relates to BECs on LECs islands. The experiment in a line: Sprout-like structures in 2D culture of LECs and BECs. In kind it is cell-based, human. As to conditions: 1:1 LECs and BECs, 48 hours, 200 ng/ml VEGF-C with or without 10 μg/ml Dll4-Fc. Here is the method: 1:1 Mixtures of BECs and LECs were grown on cover slips for 48 hours without VEGF-C to allow them to make LECs islands surrounded by BECs. The cells were then incubated for a further 48 hours with 200 ng/ml VEGF-C (produced by Dr Michael Jeltsch, University of Helsinki) with or without 10 μg/ml recombinant human Dll4-Fc protein (R&D Systems). After fixation with 1% PFA, the samples were immunostained for PECAM-1, a blood vascular endothelial marker, and podoplanin, a lymphatic endothelial marker, to identify BECs and LECs. The number of sprout-like projections of BECs on LECs islands was then counted under a fluorescence microscope.

Where [5] appears, read: subjects progressed following 5-FU therapy.
[6] abbreviates: newly diagnosed, Mayo Clinic or Roswell Park regimen.

Take `CCc1c2c(nc3ccc(OC(=O)N4CCC(N5CCCCC5)CC4)cc13)-c1cc3c(c(=O)n1C2)COC(=O)[C@]3(O)CC` [irinotecan]: in assay [1] (setting [5]), the “prolongation of survival versus best supportive care” value is on record as 2.8 month and the “prolongation of survival versus infusional 5-FU” value was 2.2 month.
For the molecule `C[C@H](NC(=O)Cc1cc(F)cc(F)c1)C(=O)N[C@H](C(=O)OC(C)(C)C)c1ccccc1` [DAPT, N—[N-(3,5-difluorophenacetyl)-1-alanyl]-S-phenyl-glycine t-butyl ester], the “intensity of NICD” value in assay [2] was “decreased in both LECs and BECs”.
With 5-FU/leucovorin, in assay [1] (setting [6]), the median survival was 12-14 months and the “median time to disease progression” value is on record as 4-5 months.

B1: VEGFR-3(D1-3)-Fc: fusion protein of the immunoglobulin-like domains 1-3 of the extracellular part of human VEGFR-3 and the Fc part of human immunoglobulin G1 (protein)
chain: YSMTPPTLNITEESHVIDTGDSLSISCRGQHPLEWAWPGAQEAPATGDKDSEDTGVVRDCEGTDARPYCKVLLLHEVHANDTGSYVCYYKYIKARIEGTTAASSYVFVRDFEQPFINKPDTLLVNRKDAMWVPCLVSIPGLNVTLRSQSSVLWPDGQEVVWDDRRGMLVSTPLLHDALYLQCETTWGDQDFLSNPFLVHITGNELYDIQLLPRKSLELLVGEKLVLNCTVWAEFNSGVTFDWDYPGKQAERGKWVPERRSQQTHTELSSILTIHNVSQHDLGSYVCKANNGIQRFRESTEVIVHE
modifications: left off: a dimerising Fc or GST
notes: fusion protein of the immunoglobulin-like domains 1-3 of the extracellular part of human VEGFR-3 and the Fc part of human immunoglobulin G1
Regarding B1, the “growth rates of VEGFR-3(D1-3)-Fc versus empty retrovirus tumors” value in the assay with SK-MeI-103 tumors is listed as “No difference in growth rates”. Also, in assay [3], the “endothelial proliferation / vessel density in tumors” value is given as “downregulated endothelial proliferation”. Moreover, the “BaF3/VEGFR-3 cell proliferation induced by VEGF-C” value in assay [4] is given as “suppresses”.

B2: VEGF-C: Vascular endothelial growth factor-C protein added to endothelial cell cultures (protein)
chain: AHYNTEILKSIDNEWRKTQCMPREVCIDVGKEFGVATNTFFKPPCVSVYRCGGCCNSEGLQCMNTSTSYLSKTLFEITVPLSQGPKPVTISFANHTSCRCMSKLDVYRQVHSIIRR
Regarding B2, in the assay with BECs on LECs islands, the “frequency of sprout-like structures of BECs over LECs islands” value is given as “tended to increase the sprout-like structure, but the difference was not statistically significant”.
